In assay [1] the test system is platelets (rabbit blood). As to the kind of experiment: Inhibition of platelet aggregation in vitro (rabbit blood), ADP-induced, turbidimetric. The class given is cell-based, New Zealand white rabbits. The settings on record: Oryctolagus cuniculus, rabbit PRP, ADP final concentration 10 μM. From the text: Blood was collected from New Zealand white rabbits (body weight 1-1.5 kg). After the animal was anesthetized with 10% chloral hydrate, the animal was placed supinely on the rabbit board, precordial hair was cut off, and the skin was disinfected with iodine and alcohol. Touch with left hand the 3rd to 4th intercostal space on the left edge of the sternum. Chose the most obvious place for the puncture point. Held the syringe in right hand and insert the needle into the chest cavity. Inserted the needle into the heart and then draw out the blood when feel the heart beating through the needle. […] assay system with a total volume of 300 μL, that is, 280 μL of diluted PRP was taken and placed in a turbidimetric tube, and was incubated with 10 μL of drug or solvent control at 37° C. for 5 minutes, and then 10 μL of different inducers such ADP (final concentration 10 μM) were added to determine the maximum platelet aggregation rate within 5 minutes. Repeation was taken at least three times […].
Platelet-rich plasma (PRP) was obtained by centrifuging blood at 1200 rpm for 10 minutes, and platelet aggregation was measured as described above. […] The platelet density in PRP is counted with a hemocytometer and diluted with platelet-poor plasma (PPP). […]

In assay [2] the test system is human platelets. As to the kind of experiment: Collagen-induced aggregation of human platelets (PRP, turbidimetric). The class given is cell-based. The settings on record: for IC50: read-out: IC50 of compound on collagen-induced platelet aggregation rate. Here is the method: Volunteers' whole blood was drawn from venous blood with 1:6 dextro-citrate ACD (85 mmol/L sodium citrate, 71.38 mmol/L citrate, 27.78 mmol/L glucose) for anticoagulation, and centrifuged at 300 g at room temperature for 10 Minutes, separate platelet rich plasma (PRP).
The turbidimetric platelet aggregation test was performed on the Chrono-Log Company's dual-channel optical platelet aggregation instrument. The speed of the icon recorder was set to 1 cm/min, and the aggregation curve was recorded. First, the platelet aggregator was preheated to 37° C., and 400 μL platelet suspension and stir bar were added to the turbidity tube, PPP was used as a reference, and traced the baseline under constant magnetic stirring at 37° C. After the baseline was stable, with the experiment plan, different concentrations of antagonist or other reagents were added to treat platelets for 2 minutes, and then inducer collagen was added to observe and record changes in the aggregation curve.
The platelet aggregation rate of the solvent control group was set to be 100%. The inhibitory effects of the compounds on normal human platelet aggregation induced by collagen at different concentrations were as follows: […]

Assay [3] deals with human platelets. Briefly: ADP-induced aggregation of human platelets (PRP, turbidimetric). As to conditions: for IC50: read-out: IC50 of compound on ADP-induced platelet aggregation rate. It counts as cell-based. Here is the method:
Volunteers' whole blood was drawn from venous blood with 1:6 dextro-citrate ACD (85 mmol/L sodium citrate, 71.38 mmol/L citrate, 27.78 mmol/L glucose) for anticoagulation, and centrifuged at 300 g at room temperature for 10 minutes, platelet rich plasma (PRP) was separated.
(§1) The turbidimetric platelet aggregation test was performed on the Chrono-Log Company's dual-channel optical platelet aggregation instrument. The speed of the icon recorder was set to 1 cm/min, and the aggregation curve was recorded. First, the platelet aggregator was preheated to 37° C., 400 μL platelet suspension and stir bar were added to the turbidity tube, use PPP as a reference, and traced the baseline under constant magnetic stirring at 37° C. After the baseline was stable, with experiment plan, different concentrations of antagonists or other reagents were added to treat platelets for 2 minutes, and then the inducer ADP was added to observe and record changes in the aggregation curve.

For assay [4], the system named is human platelets. Briefly: Thrombin-induced human platelet aggregation (PRP, turbidimetric). The class given is cell-based. As to conditions: for IC50: read-out: IC50 on thrombin-induced platelet aggregation rate. Here is the method: Volunteers' whole blood was drawn from venous blood with 1:6 D-citrate ACD (85 mmol/L sodium citrate, 71.38 mmol/L citrate, 27.78 mmol/L glucose) for anticoagulation, and centrifuged at 300 g at room temperature for 10 minutes, platelet rich plasma (PRP) was separated.
as §1, with “C., and” for “C.,”, “tube,” for “tube, use”, “PPP was used” for “PPP”, “baseline is” for “baseline was”, “with the” for “with”

[5] abbreviates: Homo sapiens, Platelet, column 1.
[6] abbreviates: Homo sapiens, Platelet, column 2.
Setting [7] is: Homo sapiens, Platelet, column 3.

Where “and” joins values, the source holds several entries; their conditions need not be identical. Equal entries are not always repeated.

`CCC(=O)NC(=N)Nc1ccc(C2=NNC(=O)CC2C)cc1` (centres unmarked) returned an IC50 in assay [1] of 334 nM.

With `CCCSc1nc(N[C@@H]2C[C@H]2c2ccc(F)c(F)c2)c2nnn([C@@H]3C[C@H](OCCO)[C@@H](O)[C@H]3O)c2n1` [Ticagrelor, reference compound], the “Aggregation inhibition rate %” value is 4.23% and 1.45% in assay [2] (1 μg/ml collagen, concentration 0.003 μM, 0.003 µM); 8.69% and 2.98% and 9.86% in assay [2] (1 μg/ml collagen, concentration 0.01 μM, 0.01 µM); 8.95% and 15.49% in assay [2] (1 μg/ml collagen, concentration 0.03 μM, 0.03 µM); 66.17% and 64.78% in assay [2] (1 μg/ml collagen, concentration 3 μM, 3 µM); 75% and 92.95% in assay [2] (1 μg/ml collagen, concentration 10 μM, 10 µM); 13.69% in assay [3] (10 μM ADP, concentration 0.03 μM). For the same compound, the “Aggregation inhibition rate %” value in assay [3] (10 μM ADP, concentration 0.1 μM) is 15.06%; in assay [3] (10 μM ADP, concentration 0.3 μM) it was 20.54%; in assay [3] (10 μM ADP, concentration 1 μM), 57.53%; in assay [3] (10 μM ADP, concentration 3 μM), 86.30%; in assay [4] (0.5 U/ml thrombin, concentration 3 μM, 3 µM) it was 69.84% and 49.33% and 92.53%; in assay [4] (0.5 U/ml thrombin, concentration 10 μM, 10 µM), 80.95% and 55.41%. Further, the “Aggregation inhibition rate %” value in assay [4] (0.5 U/ml thrombin, concentration 20 μM, 20 µM) is given as 81.33%. In addition, the inhibition at 0.03 µM in assay [2] (Homo sapiens, Platelet, 1 μg/ml collagen, concentration 0.03 μM, read-out: Aggregation inhibition rate %) came to 13%. Besides, the inhibition at 3 µM in assay [2] (Homo sapiens, Platelet, 1 μg/ml collagen, concentration 3 μM, read-out: Aggregation inhibition rate %) was determined as 75.4%; in assay [3] (Homo sapiens, Platelet, 10 μM ADP, concentration 3 μM, read-out: Aggregation inhibition rate %), 100%. In addition, the inhibition at 10 µM turned out to be 82.6% in assay [2] (Homo sapiens, Platelet, 1 μg/ml collagen, concentration 10 μM, read-out: Aggregation inhibition rate %) and 100% in assay [3] (Homo sapiens, Platelet, 10 μM ADP, concentration 10 μM, read-out: Aggregation inhibition rate %). Moreover, the inhibition at 20 µM came to 100% in assay [2] (Homo sapiens, Platelet, 1 μg/ml collagen, concentration 20 μM, read-out: Aggregation inhibition rate %) and 95.2% in assay [4] (Homo sapiens, Platelet, 0.5 U/ml thrombin, concentration 20 μM, read-out: Aggregation inhibition rate %). Besides, the IC50 in assay [2] (setting [5]) amounted to 888 nM; in assay [2] (setting [6]) it was 532 nM; in assay [2] (setting [7]) it was 908 nM; in assay [3] (setting [5]) it was 72 nM; in assay [3] (setting [6]) it was 963 nM; in assay [3] (setting [7]) it was 261 nM. Further, the IC50 in assay [4] (setting [5]) is 851 nM; in assay [4] (setting [6]), 4020 nM; in assay [4] (setting [7]), 161 nM. Further, the inhibition at 0.005 µM in assay [3] (Homo sapiens, Platelet, 10 μM ADP, concentration 0.005 μM, read-out: Aggregation inhibition rate %) stood at 0%. Also, the inhibition at 0.01 µM in assay [3] (Homo sapiens, Platelet, 10 μM ADP, concentration 0.01 μM, read-out: Aggregation inhibition rate %) worked out at 4.11%; in assay [4] (Homo sapiens, Platelet, 0.5 U/ml thrombin, concentration 0.01 μM, read-out: Aggregation inhibition rate %), 0%. The inhibition at 5 µM in assay [3] (Homo sapiens, Platelet, 10 μM ADP, concentration 5 μM, read-out: Aggregation inhibition rate %) is 100%. Also, in assay [4] (Homo sapiens, Platelet, 0.5 U/ml thrombin, concentration 0.003 μM, read-out: Aggregation inhibition rate %), the inhibition at 0.003 µM was 0%.

The record behind these values is patent US11512056B2 (Anhui New Star Pharmaceutical Development Co., Ltd, priority 2018, dated 2022).
